“Also recorded” adds a separate entry of the source. Like-named read-outs stand apart in the source and are kept apart here. Starred links: 1 amine or outer side, 2 acyl side, 3 side chain; linkers in the order of their positions; H or OH if unused. Non-standard residues stand in square brackets, D forms with d. Residues, ends and D or L forms follow the SMILES beside them. *: point of attachment. DOTA = O=C(O)CN1CCN(CC(=O)O)CCN(CC(=O)*)CCN(CC(=O)O)CC1; d(γGlu) = O=C(O)[C@@H](CCC(=O)[*:2])N[*:1]
Key:
E. coli [1] = assay: Bacterial uptake and incorporation of AeK-NBD, flow cytometry; assay type: cell-based, Escherichia coli
Experimental: (§1) Bacterial cell cultures (either live or heat-killed) of E. coli or S. aureus (1.0 McFarland standard) were prepared as described above. For bacterial staining, 2.0 μL (100 mM in DMSO) of fluorescent AeK-NBD was added to 198 μL of bacterial culture (7.7 × 10^7 cells/mL), and cells were counterstained with 2.0 μL (10 μM in DMSO) of membrane-permeable DNA Vybrant DyeCycle (VDC) Ruby dye (Thermo Fisher Scientific, Waltham, MA, USA). All cultures were incubated at 37 °C, and samples were taken at different intervals (10, 30, and 60 min) to perform flow cytometric analysis (Cytoflex, Beckman Coulter Life Sciences, Brea, CA, USA). AeK-NBD was excited with a 488 nm laser, and the emitted fluorescence was collected using a 540/30 nm band pass filter, as carried out previously. The VDC Ruby dye was excited with a 638 nm laser, and the emitted fluorescence was collected using a 712/25 nm band pass filter. No noticeable spillover was observed when VDC Ruby ‘only’ and AeK-NBD ‘only’ controls were used as controls for possible fluorescence spillover. […] The NBD-AeK median fluorescence intensity (MFI) of VDC Ruby-positive bacteria was reported. […]
(§2) Sample preparation of E. coli and S. aureus suspensions for confocal fluorescence microscopy imaging involved immediate staining with AeK-NBD and membrane-permeable DNA VDC Ruby dye for 10 min, as described in the previous section. […]

S. aureus [2] = assay: as above; assay type: cell-based, Staphylococcus aureus
Experimental: as §1, §2

E. coli [3] = tested on: E. coli; design: method as in PMID 3891732; conditions: in vitro; cited from earlier work
[4] = assay type: physicochemical
Experimental: The compound hydrophobicity was determined using the octanol–water partition coefficient “shake flask method” described by Lambidis et al.. In brief, 100 µL of purified [^68Ga]Ga-DOTA-AeK was added to 400 µL of ultrapure water. The aqueous solution was added to an equal volume of 1-octanol (Sigma-Aldrich, Darmstadt, Germany), and the mixture was mechanically shaken for approximately 3 min at room temperature. The sample was centrifuged at 16,211 g for 5 min using a Digicen 21 R centrifuge (Orto Alresa, Madrid, Spain). The aqueous and organic phases of the sample were separated, and samples from each phase were analyzed using a dose calibrator. The logarithmic partition coefficient, Log P, was calculated using the following formula:Log P = Log [(counts in octanol/counts in water)](1)

S. aureus [5] = assay type: in vivo, BALB/c mice
Experimental: (§3) Six-to-eight-week-old mixed-gender BALB/c mice (20.0 ± 2.1 g) were utilized. Animals were pre-grouped (two mice/cage) into individually ventilated cages (IVC, Tecniplast, Buguggiate, Italy) and kept under standard housing conditions (22 ± 2 °C, 55 ± 10% humidity, 15 ± 5 Pa, and 12 h light/dark cycles) with food and water being provided ad libitum. Each experimental group consisted of 5 animals.
(§4) A thigh muscle mouse model of infection and inflammation was developed for imaging purposes by adopting procedures from a previous study with some modifications. In brief, animals were inoculated intramuscularly (right hind leg) with 1.5 × 10^7 colony forming units (CFU)/mL of S. aureus or E. coli suspended in 100 µL of culture media. To induce sterile inflammation, the same mice received 100 µL of a turpentine oil solution intramuscularly into the left hind leg. Infection was allowed to develop for 3–5 days, which is typical for a model of chronic infections, and a health check, including monitoring of the infection and inflammation sites, was conducted. At 3 and 5 days after the inoculations, all animals underwent whole-body [^68Ga]Ga-DOTA-AeK microPET/CT imaging, and after euthanasia, a complete ex vivo organ tissue biodistribution radioactive assay was performed.
(§5) A total volume of 100 µL of [^68Ga]Ga-DOTA-AeK (7.4 ± 2.0 MBq, 5% EtOH/PBS, pH 7.0) was administered as an intravenous bolus via the tail vein. At the same time, the animals were kept anesthetized, (4% isoflurane in oxygen for induction and 1.5–2.5% for maintenance). Non-invasive, whole-body microPET/CT imaging was performed using a Mediso nanoScan® PET/CT scanner (Budapest, Hungary). A previously described, image acquisition was performed. The PET/CT imaging procedure consisted of static whole-body scans per animal commencing at 60 min post-injection. The imaging protocol included the X-ray topogram (30 s) to ascertain the correct animal placement followed by CT image acquisition (4–5 min) and 20 min long PET image acquisition. Image reconstruction and analysis were performed as previously described.
(§6) After PET/CT imaging, the mice were euthanized via cervical dislocation while still under anesthesia. The different organs (spleen, pancreas, stomach, intestine, kidneys, liver, heart, lung, muscle, and femur) were collected into pre-weighed tubes. The radioactivity of each sample was determined using an automatic gamma counter (Hidex AMG, Turku, Finland). Results were expressed as a percentage of injected dose per gram organ (%ID/g). Subsequently, both muscles on the left and right thighs were fixed in 4% paraformaldehyde and submitted to the University of Pretoria, Department of Paraclinical Science, for hematoxylin and eosin (H&E) and Gram staining. Infection and inflammation tissue analysis was performed by a qualified pathologist.

[6] = assay type: in vivo, BALB/c mice; conditions: mouse, in vivo, iv, Ex vivo organ biodistribution
Experimental: as §3, §4, §5, §6

E. coli [7] = assay: Bacterial cell uptake of radiotracer in live and heat-killed cultures; assay type: cell-based, Escherichia coli; conditions: 37 °C
Experimental: (§7) Overnight bacterial cell cultures of E. coli or S. aureus were grown in Tryptic Soy Broth (TSB) medium at 37 °C. The […] McFarland standard was prepared using DEN-18 McFarland Densitometer (Biosan, Riga, Latvia). For control studies, the same amount of bacterial culture was heat-killed via 30 min incubation at 90 °C. The culture viability was confirmed using agar plating with overnight incubation. All tests were initiated by adding 4.1 ± 1.23 MBq of [^68Ga]Ga-DOTA-AeK product solution (4.86 ± 1.45 GBq/µmol) to 1.0 mL of the bacterial suspension (1.8 × 10^8 cells/mL), and mixtures were maintained while shaking at 37 °C. At specific time intervals (10, 60, and 120 min), samples of the suspension were centrifuged at 16,211 g for 10 min (Digicen 21R, United Scientific, Goodwood, South Africa), and the supernatant was transferred into a plastic tube. The pellet was washed with 3 mL of PBS (140 mM sodium chloride, 10 mM phosphate buffer, and 3 mM potassium chloride, pH 7.4) and centrifuged at 16,211 g for 10 min. […] The radioactivity in the supernatant and pellet fraction were measured using an automatic gamma counter (Hidex AMG, LabLogic, Turku, Finland). The percentile of [^68Ga]Ga-DOTA-AeK cell uptake was calculated as follows:Uptake (%) = [counts in cell pellet ÷ total counts (cell pellet + supernatants)] × 100(3)

E. coli [8] = assay type: in vivo, BALB/c mice
Experimental: as §3, §4, §5, §6

[9] = assay type: in vivo, BALB/c mice; conditions: mouse, in vivo, iv, Ex vivo organ biodistribution; remark: listed apart in the source
Experimental: as §3, §4, §5, §6

S. aureus [10] = assay: Bacterial cell uptake of radiotracer in live and heat-killed cultures; assay type: cell-based, Staphylococcus aureus; conditions: 37 °C
Experimental: as §7

[11] = assay type: in vitro ADME
Experimental: The plasma protein binding filter assay described by Müller et al. was adopted. Before the experiment, Amicon® Ultra-0.5 centrifugal 10 kDa MWCO filter units (Merck, Darmstadt, Germany) were pre-washed with 200 µL of phosphate-buffered saline (PBS) for 20 min at 18,611 g using the Microfuge 16 centrifuge (Beckman Coulter Life Sciences, Brea, CA, USA). Subsequently, 800 µL of plasma was spiked with 200 µL of purified [^68Ga]Ga-DOTA-AeK, vortexed for 3 s, and incubated for 120 min at 37 °C. For radioanalysis, a 100 µL plasma sample was taken at different time intervals (30, 60, and 120 min), diluted (1:1) with PBS, aliquoted into filter units, and centrifuged at 14,800 rpm for 20 min. A similar procedure was carried out in PBS (140 mM NaCl, 10 mM phosphate buffer, and 3 mM KCl, pH 7.4) as a control. After centrifugation, each filter unit was washed by adding 100 µL of PBS (140 mM NaCl, 10 mM phosphate buffer, and 3 mM KCl, at pH 7.4, and centrifuged as described above. The counts of the filtrate fraction (representing unbound compound) and on the filter (protein-bound compound) were measured using a Capintec Captus 4000E well counter (Florham Park, NJ, USA). The percentage of the protein-bound radiotracer was calculated using the following equation:% Protein bound = [counts in filter ÷ total counts (filtrate fraction+ filter)] × 100(2)

## L-Ala-γ-D-Glu-L-Lys-N-7-nitro-2,1,3-benzoxadiazol-4-yl [AeK-NBD]
E. coli [1]; E. coli, 37 °C
  time at which bacterial incorporation was observed: 10 min
E. coli [1]; live E. coli, significantly decreased in heat-killed cultures (p < 0.05), up to 60 min
  fluorescence intensity in live cells (flow cytometry): high fluorescence intensity
S. aureus [2]; S. aureus, 37 °C
  time at which bacterial incorporation was observed: 10 min
S. aureus [2]; live S. aureus, significantly decreased in heat-killed cultures (p < 0.05), up to 60 min
  fluorescence intensity in live cells (flow cytometry): high fluorescence intensity

## ^3H-labeled disaccharide-(L-Ala-D-Glu-meso-A2pm) tripeptide
E. coli [3]
  bacterial uptake / utilisation in PG recycling pathway: lack of bacterial uptake and internalization

## C[C@H](N)C(=O)N[C@H](CCC(=O)N[C@@H](CCCCNC(=O)CN1CCN(CC(=O)O)CCN(CC(=O)O)CCN(CC(=O)O)CC1)C(=O)O)C(=O)O [[^68Ga]Ga-DOTA-AeK, metal not drawn] (H-Ala-[d(γGlu)]-Lys(DOTA)-OH)
[4]
  logP: -1.08
[4]; octanol/water partition, n = 3
  tracer recovered within the aqueous phase: 92.3 ± 0.04%
S. aureus [5]; S. aureus, Day 3 and Day 5 post-inoculation, 60 min after iv injection
  uptake in the infectious foci (PET/CT and ex vivo tissue counting): no significant uptake in the infectious foci
S. aureus [5]; mouse, in vivo
  clearance route: rapid clearance mainly via renal excretion
S. aureus [5]; mouse, in vivo, iv, 1 h
  Ex vivo organ biodistribution, Adipose: 1.9 ± 0.3 %ID/g
  Ex vivo organ biodistribution, Brain: 0.2 ± 0.0 %ID/g
  Ex vivo organ biodistribution, Femur: 2.0 ± 0.2 %ID/g
  Ex vivo organ biodistribution, Heart: 3.7 ± 0.5 %ID/g
  Ex vivo organ biodistribution, Infection: 0.9 ± 0.3 %ID/g
  Ex vivo organ biodistribution, Intestines: 1.8 ± 0.8 %ID/g
  Ex vivo organ biodistribution, Kidneys: 7.0 ± 0.1 %ID/g
  Ex vivo organ biodistribution, Pancreas: 2.3 ± 0.2 %ID/g
  Ex vivo organ biodistribution, Spleen: 1.6 ± 0.6 %ID/g
  Ex vivo organ biodistribution, Stomach: 1.1 ± 0.4 %ID/g
[6]; Brain
  tissue uptake at 1 h: 0.1 %ID/g
[6]; Intestines
  tissue uptake at 1 h: 1.2 ± 1.9 %ID/g
[6]; Stomach
  tissue uptake at 1 h: 0.7 ± 0.5 %ID/g
E. coli [7]; any time point up to 120 min
  cellular uptake, live versus heat-killed bacteria: No significant increase in radioactivity above the heat-killed bacterial cells
E. coli [7]; up to 120 min
  radiotracer detected in the medium: ~ 98%
E. coli [8]; E. coli, Day 3 and Day 5 post-inoculation, 60 min after iv injection
  uptake in the infectious foci (PET/CT and ex vivo tissue counting): no significant uptake in the infectious foci
E. coli [8]; mouse, in vivo
  clearance route: rapid clearance mainly via renal excretion
E. coli [8]; mouse, in vivo, iv, 1 h
  Ex vivo organ biodistribution, Brain: 0.2 ± 0.2 %ID/g
  Ex vivo organ biodistribution, Heart: 1.6 ± 1.3 %ID/g
  Ex vivo organ biodistribution, Kidneys: 2.9 ± 0.7 %ID/g
  Ex vivo organ biodistribution, Liver: 1.2 ± 0.4 %ID/g
  Ex vivo organ biodistribution, Lungs: 2.0 ± 0.4 %ID/g
[9]; Brain
  tissue uptake at 1 h: 0.1 %ID/g
[9]; Heart
  tissue uptake at 1 h: 0.8 ± 0.4 %ID/g
[9]; Inflammation
  tissue uptake at 1 h: 0.9 %ID/g
[9]; Liver
  tissue uptake at 1 h: 1.1 ± 0.2 %ID/g
[9]; Lungs
  tissue uptake at 1 h: 1 ± 0.1 %ID/g
[9]; Muscle
  tissue uptake at 1 h: 0.7 ± 0.4 %ID/g
[9]; Pancreas
  tissue uptake at 1 h: 0.6 ± 0.3 %ID/g
[9]; Thyroid
  tissue uptake at 1 h: 1 ± 0.7 %ID/g
S. aureus [10]; any time point up to 120 min
  cellular uptake, live versus heat-killed bacteria: No significant increase in radioactivity above the heat-killed bacterial cells
S. aureus [10]; up to 120 min
  radiotracer detected in the medium: ~ 98%
[11]
  protein-bound fraction: approximately 10.18 ± 6.9%

## L-Ala-γ-D-Glu-[^3H]A2pm
E. coli [3]
  bacterial uptake / utilisation in PG recycling pathway: successful in vitro integration; also recorded: effectively utilized by E. coli
